Data taken from patent US20040048380A1, “Chimeric vectors and their use for heterologous genes transfer” (priority 2003, published 2004).

Experiments:
[1] = test system: HeLa cells; assay: Transduction efficiency by GFP reporter gene expression (FACS); type: cell-based; conditions: peptide 4.86 μM, molar excess of about 2000 times; FIG. 5b
Description: FIG. 5. Chimeric phages transduce eukaryotic cells in a receptor-dependent way. Cells are incubated for 1 hour at 4° C. and for 3 hours at 37° C. with 2×10^13 particles of Pb-GFP phage or ΔPb-GFP phage. After 72 hours said cells are analyzed with FACS. For competition tests they are pre-incubated with GRGDSP or GRGESP peptides (4.86 μM, corresponding to a molar excess of about 2000 times) for 1 hour at 4° C. and then incubated with chimeric phages. Data are analyzed with WinMDI2.8 software. 10^4 cells for each well are counted. a) White bars correspond to ΔPb-GFP phages; b) striped bars correspond to Pb-GFP b) phage.
The expression of GFP reporter gene (Green Fluorescent Protein) was carried out by FACS analysis as follows: 1×10^5 cells (HeLa, Cs-1/β3 or Cs-1) were plated in 6-portion wells. […] After the washings and 72 hours of incubation in fresh medium the expression levels of GFP protein were measured by FACS. The specificity of the measured signal was evaluated also in presence of GRGDSP or GRGESP peptides, pre-incubating the cells for 1 hour, with peptide concentration of 4.86 μM, corresponding to a molar excess of about 2000 times and maintaining said concentrations in the following incubations. 10^4 cells were measured for each sample. […]

[2] = test system: HeLa cells; assay: Phage micropanning, internalization (37° C.), with or without kinase inhibitors; type: cell-based; conditions: Wortammannin 1 μM, ML-7 2 μM, FIG. 4
From the text: FIG. 4. Effect of the inhibitors of Wortammanin and ML-7 kinases on cell internalization. 10^12 particles of ΔPb phage (white bars) or of Pb phage (striped bars) are adsorbed on HeLa cells. The internalized phage is recovered and titrated. […] Data are shown as percentages of control enrichments carried out without inhibitors. Th results are average values of three different tests carried out in two series; SD (Standard Deviation) is also shown.
The micropanning on HeLa and CS-1 or CS-1/β3 cells was carried out […] at 4° C. and at 37° C. in order to quantify the bond and the internalization of chimeric phages, respectively. […] The eluates were titrated by ELISA on a plate coated with an anti-M13 antibody detected with anti-pVIII-HRP antibody, using as standard a phage stock with known titer.
Phage internalization was evaluated on cells which have been pre-incubated for 30′ at 37° C. with chlorokine 100 nM (Sigma) alone or together with an inhibitor of PI3K (phosphatidylinositol-3OH kinase), 1 μM Wortammannin (Sigma) or with an inhibitor of myosin light chain kinase ML-7 2 μM hydrochloride (Calbiochem, La Jolla, Calif.). […]
In short, the experiment was carried out as follows: 7.5×10^4 cells/well are plated and incubated with 10^12 chimeric phage particles. The results are expressed as enrichment factors with respect to control phages. […]

Molecule | inhibition of the transduction of HeLa cells by ΔPb-GFP phage [1] | effect of kinase inhibitor on internalization of Pb and ΔPb chimeric phages [2]
GRGDSP | up to 90% | 
GRGESP | not observed | 
O=S(=O)(c1cccc2c(I)cccc12)N1CCCNCC1 [ML-7] |  | not
COC[C@H]1OC(=O)c2coc3c2[C@@]1(C)C1=C(C3=O)[C@@H]2CCC(=O)[C@@]2(C)C[C@H]1OC(C)=O [Wortammannin] |  | inhibited
